For experiment [1], the target named is T1, GAPDH (Bos taurus, UniProt P10096).
T1 construct: from tissue; host or cells: bovine brain homogenate
The experiment in a line: Affinity chromatography with drug-alkylated dsDNA resin in bovine brain lysate (GAPDH). The class given is binding. The following applies: ds-oligonucleotide resin alkylated with drug; bovine brain lysate, 4° C.; silver-stained SDS-PAGE.

For experiment [2], the system named is GAPDH. The description is as above. The class given is binding. The following applies: summary statement.
In experiment [3] the target is T2, Human erythrocyte GAPDH (Homo sapiens, UniProt P04406).
T2 construct: Human erythrocyte GAPDH (Sigma 6019) was dissovled in ddH2O; purchased Sigma 6019 (G6019); host or cells: human erythrocytes
The experiment in a line: Southwestern blot of GAPDH with 32P-labeled dsDNA-drug complexes. The class given is binding. The following applies: membrane probed with 32P labeled DNA alkylated with drug. As to the method: FIG. 5 depicts the Southwestern blot technique using GAPDH and saframycins. FIG. 5A is a schematic of the Southwestern blot technique. […] The membranes with GAPDH were incubated with the various ^32P-labeled dsDNA-drug complexes. Lane 1: free dsDNA control; Lane 2: HQ alkylated dsDNA; Lane 3: QAD alkylated dsDNA; Lane 4: Pt 650 alkylated dsDNA; Lane 5: SafA alkylated dsDNA.
(§1) Construction of Drug-based Affinity Resin. The amino-modified QAD and its hemiaminal derivative, amino-modified HQ was prepared by coupling SafA synthetic intermediate^11 with 6-(4-Fmoc-amino-n-butoxy)-quinaldic acid followed by Fmoc deprotection. The amino-modified QAD/HQ was purified by reverse-phase HPLC and coupled to AffiGel-15. […] The amount of drug coupled to the affinity resin was determined by quantifying the drug that remained in the supernatant using reverse-phase HPLC. […] The supernatant solution was analyzed by reverse-phase HPLC. The amount of ds-oligonucleotide detected in the supernatant from the heating step was taken to be the amount of ds-oligonucleotide coupled to drug on the affinity resin in the form of stable dsDNA-drug binary complex. […] The concentration of double-stranded 21-mer DNA on the resin was determined by heat denaturing the double strand DNA on a known amount of resin and subsequently determining the concentration of complementary strand in free solution by UV spectrometry. […]

Experiment [4] relates to A375 melanoma. The following applies: A375 melanoma tumor cell line; cited from earlier work.
In experiment [5] the test system is A549 lung carcinoma. The following applies: A549 lung carcinoma tumor cell line; cited from earlier work.
For experiment [6], the target named is T3, HMG1 (Bos taurus, UniProt P10103).
T3 construct: from tissue; host or cells: bovine brain homogenate
T3 sequence (P10103 1-215): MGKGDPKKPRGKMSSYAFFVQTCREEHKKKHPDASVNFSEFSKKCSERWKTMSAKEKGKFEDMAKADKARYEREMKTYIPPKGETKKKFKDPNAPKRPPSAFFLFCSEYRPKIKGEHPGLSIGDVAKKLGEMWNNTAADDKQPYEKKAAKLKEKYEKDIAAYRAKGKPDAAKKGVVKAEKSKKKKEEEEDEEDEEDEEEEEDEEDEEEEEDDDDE
The experiment in a line: Affinity chromatography with drug-alkylated dsDNA resin in bovine brain lysate (HMG1). It is filed as binding. The following applies: ds-oligonucleotide resin alkylated with drug; pre-cleared bovine brain lysate. The protocol:
FIG. 4 is a photograph of a silver-stained SDS-PA gel showing the affinity chromatography results. The affinity matrix was incubated in bovine brain lysate at 4° C., washed extensively, and heat denatured to release bound proteins. […]
as §1, with “Resin.” for “Resin. The amino-modified QAD and its hemiaminal derivative, amino-modified HQ was prepared by coupling SafA synthetic intermediate^11 with 6-(4-Fmoc-amino-n-butoxy)-quinaldic acid followed by Fmoc deprotection. The amino-modified QAD/HQ was purified by reverse-phase HPLC and coupled to AffiGel-15.”

For experiment [7], the system named is A549 cells. As to the kind of experiment: GI50 in GAPDH siRNA transfected A549 cells (MTS). The following applies: 72 hours drug exposure. The class given is cell-based.

Data on five compounds can be found in patent US7183054B2, “Assay for identifying biological targets of polynucleotide-binding compounds” (President and Fellows of Harvard College, priority 2003, dated 2007).

T1 sequence (P10096 2-333): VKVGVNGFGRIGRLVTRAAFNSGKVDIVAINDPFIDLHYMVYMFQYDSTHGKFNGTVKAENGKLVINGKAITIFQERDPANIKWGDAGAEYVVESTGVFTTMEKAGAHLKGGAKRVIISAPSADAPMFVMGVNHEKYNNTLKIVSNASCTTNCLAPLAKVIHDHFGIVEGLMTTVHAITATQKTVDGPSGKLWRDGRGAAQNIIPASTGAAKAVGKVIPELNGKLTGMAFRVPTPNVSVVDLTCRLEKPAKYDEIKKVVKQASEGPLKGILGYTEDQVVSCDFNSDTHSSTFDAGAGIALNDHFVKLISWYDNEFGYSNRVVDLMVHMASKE
T2 sequence (P04406 whole entry): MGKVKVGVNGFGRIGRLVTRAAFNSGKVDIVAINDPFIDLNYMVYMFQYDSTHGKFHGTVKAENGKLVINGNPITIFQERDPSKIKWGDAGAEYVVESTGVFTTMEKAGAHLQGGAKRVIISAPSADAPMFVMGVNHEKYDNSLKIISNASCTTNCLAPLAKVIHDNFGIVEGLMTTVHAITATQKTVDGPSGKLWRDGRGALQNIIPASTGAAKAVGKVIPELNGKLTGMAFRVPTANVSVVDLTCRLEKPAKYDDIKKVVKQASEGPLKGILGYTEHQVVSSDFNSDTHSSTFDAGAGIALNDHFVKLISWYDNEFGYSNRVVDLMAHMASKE

In the case of `COC1=C(C)C(=O)C2=C(C1=O)[C@@H]1[C@@H]3CC4=C(C(=O)C(OC)=C(C)C4=O)[C@H](CNC(=O)C(C)=O)N3[C@@H](C#N)[C@H](C2)N1C` [(−)-Saframycin A], in experiment [1], the “binding of 37-kDa protein (GAPDH) to drug-dsDNA binary complex” value (“binding of 37-kDa protein (GAPDH)” below) was “bind specifically”. Moreover, the cellular target found entry in experiment [2] is on record as “target cellular GAPDH”. Besides, the “radioactivity at GAPDH protein band” value in experiment [3] is reported as “radioactivity was detected”. Besides, the figures for the IC50 in experiment [4] and in experiment [5] were 5.3 nM and 133 nM, respectively.

Consider `COc1cc2c(cc1O)CCN[C@]21CS[C@@H]2c3c(OC(C)=O)c(C)c4c(c3[C@H](COC1=O)N1[C@@H]2[C@H]2c3c(cc(C)c(OC)c3O)C[C@@H]([C@@H]1O)N2C)OCO4` [Ecteinascidin 743], for which the cellular target found result in experiment [2] is reported as “target cellular GAPDH”. Also, the figures for the IC50 in experiment [4] and in experiment [5] were 0.15 nM and 1 nM, respectively.

Regarding `COc1c(C)cc2c(c1O)[C@@H]1[C@@H]3Cc4c(OC(C)=O)c(C)c5c(c4[C@H](CN4C(=O)c6ccccc6C4=O)N3[C@@H](C#N)[C@H](C2)N1C)OCO5` [Pt 650, phthalascidin], the “binding of 37-kDa protein (GAPDH)” value in experiment [1] is “bind specifically”. Besides, the “radioactivity at GAPDH protein band” value in experiment [3] was “radioactivity was detected”.

Regarding `N.N.[Cl][Pt][Cl]` [cisplatin], the “binding of 37-kDa protein (GAPDH)” value in experiment [1] was “did not bind”. The “binding of 31-kDa protein (HMG1) to drug-dsDNA binary complex” value in experiment [6] is given as “bind specifically”. The “GI50 change in GAPDH siRNA transfected cells vs control siRNA” value is “nearly the same sensitivity” in experiment [7] and “unchanged” in experiment [7] (listed as cis-platin).

As to `N.N.[Cl][Pt+2][Cl]` [transplatin], the “binding of 37-kDa protein (GAPDH)” value in experiment [1] is “did not bind”. The “binding of 31-kDa protein (HMG1) to drug-dsDNA binary complex” value in experiment [6] is reported as “did not recruit any protein”.

In general, IC50 refers to the point on the concentration scale where inhibition reaches its midpoint.
